Patent US7317006B2, “Thieno[2,3-d]pyrimidines with combined LH and FSH agonistic activity” (N.V. Organon, priority 2001, dated 2008)

How the values were obtained:
human LH receptor = molecular target: T1, human LH receptor (Homo sapiens, UniProt P22888); test: CHO-LH in vitro bioactivity (CRE-luciferase reporter); type: cell-based; details: CHO cells stably transfected with the human LH receptor, read-out: EC50 CHO LHR
T1 construct: expressed in transfected cells; host or cells: CHO cells, cotransfected with CRE/promotor-luciferase reporter
T1 sequence (P22888 27-699): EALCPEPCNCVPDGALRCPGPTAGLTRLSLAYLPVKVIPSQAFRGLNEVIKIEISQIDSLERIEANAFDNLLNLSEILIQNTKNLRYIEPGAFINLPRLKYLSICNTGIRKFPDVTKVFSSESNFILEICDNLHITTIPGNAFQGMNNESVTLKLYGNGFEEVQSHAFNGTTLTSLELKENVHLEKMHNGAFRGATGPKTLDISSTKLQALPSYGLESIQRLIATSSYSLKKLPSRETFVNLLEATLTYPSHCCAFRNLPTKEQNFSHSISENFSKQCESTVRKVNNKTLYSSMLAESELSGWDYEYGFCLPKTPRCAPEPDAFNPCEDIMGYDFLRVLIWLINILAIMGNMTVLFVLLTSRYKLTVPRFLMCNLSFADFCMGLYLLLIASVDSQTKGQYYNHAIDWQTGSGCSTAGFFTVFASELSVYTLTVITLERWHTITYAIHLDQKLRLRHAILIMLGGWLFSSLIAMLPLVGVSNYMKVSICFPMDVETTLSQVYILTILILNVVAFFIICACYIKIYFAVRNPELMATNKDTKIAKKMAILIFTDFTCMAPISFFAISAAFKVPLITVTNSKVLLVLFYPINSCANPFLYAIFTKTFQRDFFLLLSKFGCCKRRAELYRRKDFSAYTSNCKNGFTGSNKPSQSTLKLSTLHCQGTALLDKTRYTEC
Procedure: (§1) It has been shown that compounds of the above mentioned formula I show agonistic LH and FSH activity. […] Typically the FSH activity ranges from an activity of about 1% of the LH agonist stimulation to about 10% of the LH agonist stimulation.
(§2) LH agonistic activity of compounds were tested in Chinese Hamster Ovary (CHO) cells stably transfected with the human receptor and cotransfected with a cAMP responsive element (CRE)/promotor directing the expression of a firefly luciferase reporter gene. Binding of ligand to the Gs-coupled LH receptor will result in an increase of cAMP, which in turn will induce an increased transactivation of the luciferase reporter construct. The luciferase signal was quantified using a luminescence counter. For test compounds, EC50 values (concentration of test compound causing half-maximal (50%) stimulation) were calculated. For that purpose the software program GraphPad PRISM, version 3.0 (GraphPad software Inc., San Diego) was used.

human FSH receptor = molecular target: T2, human FSH receptor (Homo sapiens, UniProt P23945); test: CHO-FSH in vitro bioactivity (CRE-luciferase reporter); type: cell-based; details: CHO cells transfected with the human FSH receptor and luciferase reporter gene; read-out: EC50 CHO FSHR
T2 construct: expressed in transfected cells; host or cells: CHO cells, transfected with luciferase reporter gene
T2 sequence (P23945 18-695): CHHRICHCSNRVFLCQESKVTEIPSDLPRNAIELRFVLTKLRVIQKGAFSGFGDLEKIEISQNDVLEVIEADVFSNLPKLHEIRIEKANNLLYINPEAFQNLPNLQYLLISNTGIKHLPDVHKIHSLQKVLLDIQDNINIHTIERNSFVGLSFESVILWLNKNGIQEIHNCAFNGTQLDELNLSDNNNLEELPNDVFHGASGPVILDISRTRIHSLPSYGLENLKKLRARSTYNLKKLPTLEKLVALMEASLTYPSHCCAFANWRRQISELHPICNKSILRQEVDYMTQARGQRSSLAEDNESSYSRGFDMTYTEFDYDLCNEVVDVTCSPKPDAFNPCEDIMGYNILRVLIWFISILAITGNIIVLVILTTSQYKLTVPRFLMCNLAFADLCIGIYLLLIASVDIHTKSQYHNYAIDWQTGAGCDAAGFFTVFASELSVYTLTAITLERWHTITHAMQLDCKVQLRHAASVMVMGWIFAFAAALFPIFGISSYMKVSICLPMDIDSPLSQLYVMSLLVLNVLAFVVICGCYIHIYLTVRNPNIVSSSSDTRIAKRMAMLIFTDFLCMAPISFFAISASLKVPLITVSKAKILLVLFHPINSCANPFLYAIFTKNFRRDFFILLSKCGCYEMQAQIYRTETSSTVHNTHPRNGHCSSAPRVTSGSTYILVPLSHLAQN
Procedure: as §1, §2
In a similar way FSH agonistic activity of compounds was tested in CHO cells transfected with the luciferase reporter gene and the human FSH receptor.

immature female mice = test: In vivo bioactivity: ovulation induction in immature mice; details: immature female mice primed with urinary FSH (Humegon 12.5 IU/animal), ova in the oviduct counted 24 hours after treatment
Procedure: To measure LH in vivo activity of compounds, ovulation induction in immature mice can be studied. In this assay immature female mice are primed with urinary FSH and approximately 48 hours later treated with a LH agonistic compound. The animals are killed after LH agonist treatment and the number of ova in the oviduct is microscopically assessed.
To measure in vivo activity of LH/FSH receptor agonistic compounds ovulation induction in immature mice was studied. In this assay immature female mice were primed with urinary FSH (Humegon 12.5 IU/animal). Approximately 48 hours later the animals were treated with a LH/FSH agonistic compound at a dose-level of 50 mg/kg. The animals were killed 24 hours after LH/FSH agonist treatment and the number of ova in the oviduct was microscopically assessed.

| SMILES | EC50 (human LH receptor) [nM] | EC50 (human FSH receptor) [nM] | mean no. of ova (50 mg/kg p.o.) (immature female mice) |
| --- | --- | --- | --- |
| CSc1nc(-c2cccc(NC(=O)CN3CCSCC3)c2)c2c(N)c(C(=O)NC(C)(C)C)sc2n1 [Example 3, tert-Butyl 5-amino-2-methylthio-4-(3-(2-(thiomorpholin-4-yl)-acetamido)-phenyl)-thieno[2,3-d]pyrimidine-6-carboxamide] | 8.03 | 1040 | 19.8 |
| CSc1nc(-c2cccc(NC(=O)CN3CCCCC3)c2)c2c(N)c(C(=O)NC(C)(C)C)sc2n1 [Example 4, tert-Butyl 5-amino-2-methylthio-4-(3-(2-(piperidin-1-yl)-acetamido)-phenyl)-thieno[2,3-d]pyrimidine-6-carboxamide] | 6.63 | 201 |  |
| CSc1nc(-c2cccc(NC(=O)CN3CCNCC3)c2)c2c(N)c(C(=O)NC(C)(C)C)sc2n1 [Example 6, tert-Butyl 5-amino-2-methylthio-4-(3-(2-(piperazin-1-yl)-acetamido)-phenyl)-thieno[2,3-d]pyrimidine-6-carboxamide] | 3.17 | 150 |  |

The remaining molecules from weak to strong by EC50 (human LH receptor), led by results:

| EC50 (human LH receptor) [nM] | EC50 (human FSH receptor) [nM] | SMILES | mean no. of ova (50 mg/kg p.o.) (immature female mice) |
| --- | --- | --- | --- |
| 6.68 | 480 | CSc1nc(-c2cccc(NC(=O)CN3CCCC3)c2)c2c(N)c(C(=O)NC(C)(C)C)sc2n1 [Example 5, tert-Butyl 5-amino-2-methylthio-4-(3-(2-(pyrrolidin-1-yl)-acetamido)-phenyl)-thieno[2,3-d]pyrimidine-6-carboxamide] |  |
| 3.86 | 462 | CSc1nc(-c2cccc(NC(=O)CN3CCC3)c2)c2c(N)c(C(=O)NC(C)(C)C)sc2n1 [Example 1, tert-Butyl 5-amino-2-methylthio-4-(3-(2-(azetidin-1-yl)-acetamido)-phenyl)-thieno[2,3-d]pyrimidine-6-carboxamide] | 1.6 |
| 2.24 | 42 | CSc1nc(-c2cccc(NC(=O)CN3CCOCC3)c2)c2c(N)c(C(=O)NC(C)(C)C)sc2n1 [Example 2, tert-Butyl 5-amino-2-methylthio-4-(3-(2-(morpholin-4-yl)-acetamido)-phenyl)-thieno[2,3-d]pyrimidine-6-carboxamide] | 9.3 |
